PubChem BioAssay AID1963871 (Molecular Pharmacology Branch, DTP, NCI, 2024)
pIC50: −log10 of the molar value.

Tested on: KRAS-mutant PDC multicell tumor spheroid viability
Assay: Anticancer human tumor 521955-158-R2-J5-PDC patient-derived pancreatic carcinoma cell line growth inhibition [KRAS2]
Conditions: for pIC50: curve of first compound; for viability, T/C: stronger effect = lower value
Outline: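 Combination screen of spheroid viability in tumor-cell co-cultures with endothelial (HUVEC) and mesenchymal stem cell stroma. Each agent was tested in half-log dilutions, topping at clinical Cmax or at 10 microM without a known Cmax.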

[1] = second compound 0.1 µM, first compound 0.0316 µM
[2] = second compound 0.1 µM, first compound 0.1 µM
[3] = second compound 0.1 µM, first compound 0.316 µM
[4] = second compound 0.1 µM, first compound 1 µM
[5] = second compound 0.1 µM, first compound 3.16 µM
[6] = second compound 0.1 µM, first compound 10 µM
[7] = second compound 0.316 µM, first compound 0.0316 µM
[8] = second compound 0.316 µM, first compound 0.1 µM
[9] = second compound 0.316 µM, first compound 0.316 µM
[10] = second compound 0.316 µM, first compound 1 µM
[11] = second compound 0.316 µM, first compound 3.16 µM
[12] = second compound 0.316 µM, first compound 10 µM
[13] = second compound 1 µM, first compound 0.0316 µM
[14] = second compound 1 µM, first compound 0.1 µM
[15] = second compound 1 µM, first compound 0.316 µM
[16] = second compound 1 µM, first compound 1 µM
[17] = second compound 1 µM, first compound 3.16 µM
[18] = second compound 1 µM, first compound 10 µM
[19] = second compound 3.16 µM, first compound 0.0316 µM
[20] = second compound 3.16 µM, first compound 0.1 µM
[21] = second compound 3.16 µM, first compound 0.316 µM
[22] = second compound 3.16 µM, first compound 1 µM
[23] = second compound 3.16 µM, first compound 3.16 µM
[24] = second compound 3.16 µM, first compound 10 µM
[25] = second compound 10 µM, first compound 0.0316 µM
[26] = second compound 10 µM, first compound 0.1 µM
[27] = second compound 10 µM, first compound 0.316 µM
[28] = second compound 10 µM, first compound 1 µM
[29] = second compound 10 µM, first compound 3.16 µM
[30] = second compound 10 µM, first compound 10 µM
[31] = second compound 0.1 µM, first compound 0.00316 µM
[32] = second compound 0.1 µM, first compound 0.01 µM
[33] = second compound 0.316 µM, first compound 0.00316 µM
[34] = second compound 0.316 µM, first compound 0.01 µM
[35] = second compound 1 µM, first compound 0.00316 µM
[36] = second compound 1 µM, first compound 0.01 µM
[37] = second compound 3.16 µM, first compound 0.00316 µM
[38] = second compound 3.16 µM, first compound 0.01 µM
[39] = second compound 10 µM, first compound 0.00316 µM
[40] = second compound 10 µM, first compound 0.01 µM
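Further: viability read after seven days of drug exposure.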

Compound	pIC50 (second compound 0.1 µM)	pIC50 (second compound 0.316 µM)	pIC50 (second compound 1 µM)	pIC50 (second compound 3.16 µM)	pIC50 (second compound 10 µM)	viability, T/C [1] [%]	viability, T/C [2] [%]	viability, T/C [3] [%]	viability, T/C [4] [%]	viability, T/C [7] [%]	viability, T/C [8] [%]	viability, T/C [9] [%]	viability, T/C [10] [%]	viability, T/C [13] [%]	viability, T/C [14] [%]	viability, T/C [15] [%]	viability, T/C [19] [%]	viability, T/C [20] [%]	viability, T/C [25] [%]	viability, T/C [26] [%]	also measured
CC(C)NCC(C(=O)N1CCN(c2ncnc3c2C(C)CC3O)CC1)c1ccc(Cl)cc1 (stereo not given) + COc1cc2nc(C)nc(NC(C)c3cc(N)cc(C(F)(F)F)c3)c2cc1OC1CCOC1	< 5.00	< 5.00	< 5.00	< 5.00	6.71	89.3	92.2	70.4	75.2	95.9	86	71.7	67.5	81.3	86.6	60.2	87.3	93.1	48.7	65.2	viability, T/C [5]: 70.9%; viability, T/C [6]: 56.4%; viability, T/C [11]: 71%; viability, T/C [12]: 60.7%; viability, T/C [16]: 64.1%; viability, T/C [17]: 63.7%; viability, T/C [18]: 60.8%; viability, T/C [21]: 72.2%; viability, T/C [22]: 56.8%; viability, T/C [23]: 59.4%; viability, T/C [24]: 43.5%; viability, T/C [27]: 43%; viability, T/C [28]: 29.7%; viability, T/C [29]: 14.3%; viability, T/C [30]: 4.84%
CC1(C)CCC(CN2CCN(c3ccc(C(=O)NS(=O)(=O)c4ccc(NCC5CCOCC5)c([N+](=O)[O-])c4)c(Oc4cnc5[nH]ccc5c4)c3)CC2)=C(c2ccc(Cl)cc2)C1 + COc1cc2nc(C)nc(NC(C)c3cc(N)cc(C(F)(F)F)c3)c2cc1OC1CCOC1	5.20	5.30	5.44	5.70	6.41	74.8	82.6	92.4	93.3	74.5	82.8	86	80.5	71.9	78.2	82.6	81	82.4	55.7	52.6	viability, T/C [5]: 82.9%; viability, T/C [6]: 28.2%; viability, T/C [11]: 70.9%; viability, T/C [12]: 18.8%; viability, T/C [16]: 81.3%; viability, T/C [17]: 55.7%; viability, T/C [18]: 10.8%; viability, T/C [21]: 86.1%; viability, T/C [22]: 80%; viability, T/C [23]: 30.2%; viability, T/C [24]: 12.2%; viability, T/C [27]: 51.3%; viability, T/C [28]: 36.8%; viability, T/C [29]: 2.22%; viability, T/C [30]: 1.29%
CCN1CCN(Cc2ccc(Nc3ncc(F)c(-c4cc(F)c5nc(C)n(C(C)C)c5c4)n3)nc2)CC1 + COc1cc2nc(C)nc(NC(C)c3cc(N)cc(C(F)(F)F)c3)c2cc1OC1CCOC1	< 6.00	< 6.00	< 6.00	< 6.00	6.33	79.2	79.9	85.4	76.7	79.4	71.7	85.4	76	87.5	77.4	87.7	89.3	76.7	74.4	91	viability, T/C [31]: 88.2%; viability, T/C [32]: 84.9%; viability, T/C [33]: 92%; viability, T/C [34]: 89.9%; viability, T/C [35]: 93.1%; viability, T/C [36]: 80.2%; viability, T/C [16]: 80.8%; viability, T/C [37]: 90.5%; viability, T/C [38]: 101%; viability, T/C [21]: 83.2%; viability, T/C [22]: 73%; viability, T/C [39]: 82.9%; viability, T/C [40]: 76%; viability, T/C [27]: 74.7%; viability, T/C [28]: 0.5%
Cn1ncnc1[C@H]1c2n[nH]c(=O)c3cc(F)cc(c23)N[C@@H]1c1ccc(F)cc1 + COc1cc2nc(C)nc(NC(C)c3cc(N)cc(C(F)(F)F)c3)c2cc1OC1CCOC1	< 7.00	< 7.00	< 7.00	< 7.00	< 7.00	70.3	66.2			67.4	65.2			69.3	71.1		77.8	70.3	57.6	55	viability, T/C (second compound 0.1 µM, first compound 0.000316 µM): 80.6%; viability, T/C (second compound 0.1 µM, first compound 0.001 µM): 78.6%; viability, T/C [31]: 85.2%; viability, T/C [32]: 67.1%; viability, T/C (second compound 0.316 µM, first compound 0.000316 µM): 81.2%; viability, T/C (second compound 0.316 µM, first compound 0.001 µM): 90.5%; viability, T/C [33]: 85.3%; viability, T/C [34]: 63.2%; viability, T/C (second compound 1 µM, first compound 0.000316 µM): 86%; viability, T/C (second compound 1 µM, first compound 0.001 µM): 88.1%; viability, T/C [35]: 84%; viability, T/C [36]: 75.1%; viability, T/C (second compound 3.16 µM, first compound 0.000316 µM): 94.2%; viability, T/C (second compound 3.16 µM, first compound 0.001 µM): 94.6%; viability, T/C [37]: 88.7%; viability, T/C [38]: 81.2%; viability, T/C (second compound 10 µM, first compound 0.000316 µM): 84.7%; viability, T/C (second compound 10 µM, first compound 0.001 µM): 70.5%; viability, T/C [39]: 75.3%; viability, T/C [40]: 67.9%
